Measured values reported in PMC2763345 (PLoS Pathogens, 2009).
In brackets after ≈: the same amount, converted by molar mass.

Experiments:
[1] = tested on: BCG Rv3790/DprE1 Cys387Ser (BN2); type: cell-based, M. bovis BCG
[2] = tested on: M. smegmatis Rv3790/DprE1 Cys387Gly (MN47); type: cell-based
[3] = tested on: M. smegmatis Rv3790/DprE1 Cys387Ser (MN84); type: cell-based

SMILES | MIC [1] [µg/mL] | MIC [2] [µg/mL] | MIC [3] [µg/mL]
O=C(NCCOCc1ccccc1)c1cc([N+](=O)[O-])cc([N+](=O)[O-])c1 [Compound 7, N-(2-(benzyloxy)ethyl)-3,5-dinitrobenzamide] | > 10 | – | –
COc1ccc(OCCNC(=O)c2cc([N+](=O)[O-])cc([N+](=O)[O-])c2)cc1 [Compound 8, N-(2-(4-methoxyphenoxy)ethyl)-3,5-dinitrobenzamide] | > 10 | – | –
CO[C@H]1/C=C/O[C@@]2(C)Oc3c(C)c(O)c4c(O)c(c(/C=N/N5CCN(C)CC5)c(O)c4c3C2=O)NC(=O)/C(C)=C\C=C\[C@H](C)[C@H](O)[C@@H](C)[C@@H](O)[C@@H](C)[C@H](OC(C)=O)[C@@H]1C [Rifampin] | 0.31 (≈ 0.377 µM) | 0.31 (≈ 0.377 µM) | 0.31 (≈ 0.377 µM)
